From the NIST ThermoML archive (doi:10.1016/j.jct.2010.07.008)

Settings: Liquid, Closed cell (Static) method

CN(C)CCOCCO [2-(2-dimethylaminoethoxy)ethanol]
Settings	vapor or sublimation pressure [kPa]
283.15 K	0.007
293.14 K	0.016
303.09 K	0.0346
313.08 K	0.0707
323.28 K	0.1418
333.12 K	0.2604
343.12 K	0.4742
353.14 K	0.8145
363.35 K	1.419
373.1 K	2.315
